Data: patent US20080009418A1, “Selective Inhibitors” (Alchemia LTD., priority 2004, published 2008)

Assays:
[1] = target: T1, Human neuropeptide Y (NPY-Y1) (Homo sapiens, UniProt P25929); assay: Radioligand binding, human neuropeptide Y NPY-Y1 membranes, FlashPlate, [125I]-PYY; settings: compound at 10 μM; for A9 radioligand binding inhibition: human NPY-Y1 membranes
T1 construct: purchased Perkin Elmer Biosignal
T1 sequence (P25929 1-384): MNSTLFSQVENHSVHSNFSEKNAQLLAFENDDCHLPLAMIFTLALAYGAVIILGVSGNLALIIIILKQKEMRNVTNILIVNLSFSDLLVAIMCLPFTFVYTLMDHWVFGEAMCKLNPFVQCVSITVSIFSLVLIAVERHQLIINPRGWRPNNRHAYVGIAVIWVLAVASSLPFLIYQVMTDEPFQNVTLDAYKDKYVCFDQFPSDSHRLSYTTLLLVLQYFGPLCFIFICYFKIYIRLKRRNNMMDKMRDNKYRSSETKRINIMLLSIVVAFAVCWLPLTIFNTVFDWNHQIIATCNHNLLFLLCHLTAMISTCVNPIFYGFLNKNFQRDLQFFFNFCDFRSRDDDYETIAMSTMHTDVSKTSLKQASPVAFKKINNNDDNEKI
How it was run: (§1)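 Cloned human receptor membranes were coated onto FlashPlate wells and incubated with radioligand and compound (added from a 0.5 mM DMSO daughter plate) for 1 hour at room temperature in the dark. Scintillation counting gave percent inhibition, with DMSO defining total and reference ligand defining non-specific binding.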

[2] = target: T2, Human Melanocortin (MC4) (Homo sapiens, UniProt P32245); assay: Radioligand binding, human melanocortin MC4 membranes, FlashPlate, [125I]-NDP-αMSH; settings: compound at 10 μM; for A4 radioligand binding inhibition: human melanocortin MC4 membranes
T2 construct: purchased Perkin Elmer Biosignal
How it was run: as §1

[3] = target: T3, Human opioid (ORL1) (Homo sapiens, UniProt P41146); assay: Radioligand binding, human opioid ORL1 membranes, FlashPlate, [125I]-Nociceptin; settings: compound at 10 μM; for A10 radioligand binding inhibition: human ORL1 membranes
T3 construct: purchased Perkin Elmer Biosignal
How it was run: as §1

[4] = target: T4, Human neurokinin (NK1) (Homo sapiens, UniProt P25103); assay: Radioligand binding, human neurokinin NK1 membranes, filtration, [125I]-Substance P; settings: compound at 10 μM; for A8 radioligand binding inhibition: human neurokinin NK1 membranes
T4 construct: purchased Perkin Elmer Biosignal
How it was run: (§2)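 Percent inhibition of radioligand binding measured on recombinant human membranes: NK1 with [125I]-Substance P, KOP with [3H]-Diprenorphine. Incubation 1 h at room temperature, then harvest onto 0.3% PEI-soaked filters, cold Tris-HCl pH 7.4 washes and scintillation counting; non-specific binding from reference ligand wells.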

[5] = target: T5, Human melanin-concentrating hormone (MCH1) (Homo sapiens, UniProt Q99705); assay: Radioligand binding, human melanin-concentrating hormone MCH1 membranes, FlashPlate, [125I]-S36057; settings: compound at 10 μM; for A6 radioligand binding inhibition: human MCH1 membranes
T5 construct: purchased Perkin Elmer Biosignal
How it was run: as §1

[6] = target: T6, Human melanocortin (MC5) (Homo sapiens, UniProt P33032); assay: Radioligand binding, human melanocortin MC5 membranes, FlashPlate, [125I]-NDP-αMSH; settings: compound at 10 μM; for A5 radioligand binding inhibition: human melanocortin MC5 membranes
T6 construct: purchased Perkin Elmer Biosignal
How it was run: as §1

[7] = target: T7, Mouse urotensin (mUR2) (Mus musculus, UniProt Q8VIH9); assay: Radioligand binding, mouse urotensin mUR2 membranes, FlashPlate, [125I]-Urotensin II; settings: compound at 10 μM; for A11 radioligand binding inhibition: mouse urotensin mUR2 membranes
T7 construct: purchased Perkin Elmer Biosignal
T7 sequence (Q8VIH9 1-385): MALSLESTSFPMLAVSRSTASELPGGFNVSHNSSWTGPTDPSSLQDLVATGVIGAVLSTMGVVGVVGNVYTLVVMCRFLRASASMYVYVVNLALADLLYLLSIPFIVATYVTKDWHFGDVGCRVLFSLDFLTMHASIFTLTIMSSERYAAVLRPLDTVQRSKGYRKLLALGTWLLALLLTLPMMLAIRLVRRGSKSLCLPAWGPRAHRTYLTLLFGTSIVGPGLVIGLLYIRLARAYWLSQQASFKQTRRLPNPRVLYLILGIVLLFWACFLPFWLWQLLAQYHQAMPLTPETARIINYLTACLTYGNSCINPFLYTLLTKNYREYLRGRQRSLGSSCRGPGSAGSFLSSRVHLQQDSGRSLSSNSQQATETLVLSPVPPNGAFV
How it was run: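 Cloned mouse urotensin (mUR2) receptor membranes from Perkin Elmer Biosignal were immobilized in FlashPlate microplates using a proprietary coating. Each well got 19.5 μl buffer, then 0.5 μl of DMSO, reference ligand, or compound. Adding 5 μl of [125I]-Urotensin II, diluted to 5× final concentration in binding buffer, started binding. Plates were sealed with TopSeal-A and incubated 1 hour at room temperature in the dark. Wells were counted for 30 seconds each on a TopCount after a 60-second delay, and percentage inhibition was calculated.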

[8] = target: T8, Human Melanocortin (MC3) (Homo sapiens, UniProt P41968); assay: Radioligand binding, human melanocortin MC3 membranes, FlashPlate, [125I]-NDP-αMSH; settings: compound at 10 μM; for A3 radioligand binding inhibition: human melanocortin MC3 membranes
T8 construct: purchased Perkin Elmer Biosignal
How it was run: as §1

[9] = target: T9, Human κ-Opioid (KOP) (Homo sapiens, UniProt P41145); assay: Radioligand binding, human κ-opioid (KOP) membranes, filtration, [3H]-Diprenorphine; settings: compound at 10 μM; for A2 radioligand binding inhibition: human κ-opioid (KOP) membranes
T9 construct: purchased Perkin Elmer Biosignal
How it was run: as §2

[10] = target: T10, Human μ-opioid (MOP) (Homo sapiens, UniProt P35372); assay: Radioligand binding, human μ-opioid (MOP) membranes, FlashPlate, [3H]-Naloxone; settings: compound at 10 μM; for A7 radioligand binding inhibition: human μ-opioid (MOP) membranes
T10 construct: purchased Perkin Elmer Biosignal
How it was run: as §1

[11] = target: T11, Human δ-opioid (DOP) (Homo sapiens, UniProt P41143); assay: Radioligand binding, human δ-opioid (DOP) membranes, FlashPlate, [3H]-Bremazocine; settings: compound at 10 μM; for A1 radioligand binding inhibition: human δ-opioid (DOP) membranes
T11 construct: purchased Perkin Elmer Biosignal
How it was run: as §1

T2 sequence (P32245 whole entry): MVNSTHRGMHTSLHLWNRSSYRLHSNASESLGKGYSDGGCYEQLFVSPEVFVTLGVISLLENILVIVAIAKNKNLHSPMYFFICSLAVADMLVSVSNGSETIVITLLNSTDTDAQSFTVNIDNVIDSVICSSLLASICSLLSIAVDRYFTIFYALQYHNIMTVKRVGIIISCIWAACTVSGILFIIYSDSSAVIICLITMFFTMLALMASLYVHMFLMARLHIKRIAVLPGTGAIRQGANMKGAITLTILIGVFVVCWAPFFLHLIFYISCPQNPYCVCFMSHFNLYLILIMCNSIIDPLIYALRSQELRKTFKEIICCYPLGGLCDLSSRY
T6 sequence (P33032 whole entry): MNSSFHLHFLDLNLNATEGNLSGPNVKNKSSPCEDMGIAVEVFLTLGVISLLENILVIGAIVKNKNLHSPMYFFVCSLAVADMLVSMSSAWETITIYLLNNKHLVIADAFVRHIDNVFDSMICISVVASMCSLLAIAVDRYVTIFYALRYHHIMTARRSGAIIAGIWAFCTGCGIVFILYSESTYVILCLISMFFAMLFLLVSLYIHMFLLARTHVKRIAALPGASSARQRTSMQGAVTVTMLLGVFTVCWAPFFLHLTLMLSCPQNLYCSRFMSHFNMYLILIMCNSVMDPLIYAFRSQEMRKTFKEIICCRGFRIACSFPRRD
T4 sequence (P25103 whole entry): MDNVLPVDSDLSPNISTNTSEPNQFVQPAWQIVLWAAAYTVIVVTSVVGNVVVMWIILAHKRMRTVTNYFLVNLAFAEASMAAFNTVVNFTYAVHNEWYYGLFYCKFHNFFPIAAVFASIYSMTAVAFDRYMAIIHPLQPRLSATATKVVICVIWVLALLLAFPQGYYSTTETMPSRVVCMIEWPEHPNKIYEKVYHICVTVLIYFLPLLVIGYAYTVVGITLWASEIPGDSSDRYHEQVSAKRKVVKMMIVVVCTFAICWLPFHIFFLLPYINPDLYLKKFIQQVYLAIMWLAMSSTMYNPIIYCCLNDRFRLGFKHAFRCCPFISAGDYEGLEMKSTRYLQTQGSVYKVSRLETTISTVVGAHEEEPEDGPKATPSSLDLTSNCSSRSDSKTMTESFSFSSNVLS
T9 sequence (P41145 whole entry): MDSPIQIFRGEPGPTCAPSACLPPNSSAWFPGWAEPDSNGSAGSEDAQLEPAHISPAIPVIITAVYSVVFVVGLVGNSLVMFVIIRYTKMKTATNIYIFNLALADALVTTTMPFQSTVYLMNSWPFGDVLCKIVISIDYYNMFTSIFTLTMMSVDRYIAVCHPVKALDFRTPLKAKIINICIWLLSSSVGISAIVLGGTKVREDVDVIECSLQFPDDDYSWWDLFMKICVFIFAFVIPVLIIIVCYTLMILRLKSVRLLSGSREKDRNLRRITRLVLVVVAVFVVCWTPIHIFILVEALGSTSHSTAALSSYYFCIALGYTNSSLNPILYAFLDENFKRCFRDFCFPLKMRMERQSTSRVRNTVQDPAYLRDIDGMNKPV
T8 sequence (P41968 whole entry): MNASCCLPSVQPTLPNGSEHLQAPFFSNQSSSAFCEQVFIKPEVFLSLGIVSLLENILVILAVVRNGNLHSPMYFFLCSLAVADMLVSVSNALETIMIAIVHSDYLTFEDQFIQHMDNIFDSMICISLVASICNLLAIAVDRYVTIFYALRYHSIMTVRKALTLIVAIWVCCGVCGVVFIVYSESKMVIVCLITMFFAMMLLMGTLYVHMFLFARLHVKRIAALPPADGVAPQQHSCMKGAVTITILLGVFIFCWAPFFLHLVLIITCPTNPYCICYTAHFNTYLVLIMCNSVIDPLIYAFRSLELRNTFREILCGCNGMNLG
T10 sequence (P35372 whole entry): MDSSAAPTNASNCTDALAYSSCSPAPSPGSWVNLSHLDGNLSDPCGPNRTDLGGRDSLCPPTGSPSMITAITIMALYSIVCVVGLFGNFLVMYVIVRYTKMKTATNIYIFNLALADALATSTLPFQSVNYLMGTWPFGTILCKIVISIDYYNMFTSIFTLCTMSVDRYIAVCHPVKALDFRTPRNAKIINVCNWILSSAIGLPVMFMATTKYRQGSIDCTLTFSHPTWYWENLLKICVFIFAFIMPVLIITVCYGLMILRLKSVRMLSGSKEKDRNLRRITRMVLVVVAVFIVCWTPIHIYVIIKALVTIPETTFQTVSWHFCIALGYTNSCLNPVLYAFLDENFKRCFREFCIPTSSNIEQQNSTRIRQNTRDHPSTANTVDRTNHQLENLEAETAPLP
T5 sequence (Q99705 whole entry): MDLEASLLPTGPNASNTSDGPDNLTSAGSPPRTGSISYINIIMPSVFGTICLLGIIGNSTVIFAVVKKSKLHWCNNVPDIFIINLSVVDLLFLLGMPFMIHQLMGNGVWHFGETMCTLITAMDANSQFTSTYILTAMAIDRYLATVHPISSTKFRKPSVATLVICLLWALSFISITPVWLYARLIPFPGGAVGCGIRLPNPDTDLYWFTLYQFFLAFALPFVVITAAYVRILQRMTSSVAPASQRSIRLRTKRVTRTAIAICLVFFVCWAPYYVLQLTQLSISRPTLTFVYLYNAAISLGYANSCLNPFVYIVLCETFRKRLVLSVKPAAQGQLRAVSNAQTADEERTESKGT
T11 sequence (P41143 whole entry): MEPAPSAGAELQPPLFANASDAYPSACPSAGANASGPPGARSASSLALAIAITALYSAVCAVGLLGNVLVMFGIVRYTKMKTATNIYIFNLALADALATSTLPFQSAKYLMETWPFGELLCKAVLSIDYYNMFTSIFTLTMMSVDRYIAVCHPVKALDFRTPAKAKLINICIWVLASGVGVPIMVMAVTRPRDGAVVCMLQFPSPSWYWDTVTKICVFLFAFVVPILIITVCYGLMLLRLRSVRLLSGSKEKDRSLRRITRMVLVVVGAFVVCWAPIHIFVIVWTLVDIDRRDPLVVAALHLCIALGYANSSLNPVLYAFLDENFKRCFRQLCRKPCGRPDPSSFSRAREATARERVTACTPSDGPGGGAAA
T3 sequence (P41146 whole entry): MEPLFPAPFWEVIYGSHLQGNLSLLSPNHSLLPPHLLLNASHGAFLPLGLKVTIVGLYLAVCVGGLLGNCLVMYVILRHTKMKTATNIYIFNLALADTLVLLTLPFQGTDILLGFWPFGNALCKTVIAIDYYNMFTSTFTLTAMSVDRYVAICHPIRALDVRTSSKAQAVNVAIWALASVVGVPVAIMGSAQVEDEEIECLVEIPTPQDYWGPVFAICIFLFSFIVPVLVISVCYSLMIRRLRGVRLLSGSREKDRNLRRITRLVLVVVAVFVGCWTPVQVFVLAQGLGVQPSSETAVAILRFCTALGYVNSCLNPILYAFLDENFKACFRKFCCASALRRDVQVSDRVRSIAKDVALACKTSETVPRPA

Structure (SMILES)	A9 radioligand binding inhibition [1]	A4 radioligand binding inhibition [2]	A10 radioligand binding inhibition [3]	A8 radioligand binding inhibition [4]	A6 radioligand binding inhibition [5]	A5 radioligand binding inhibition [6]	A11 radioligand binding inhibition [7]	A3 radioligand binding inhibition [8]	A2 radioligand binding inhibition [9]	A7 radioligand binding inhibition [10]	A1 radioligand binding inhibition [11]	further results
COCC1OC(OCc2ccc3ccccc3c2)C(NC(=O)CNC(=N)N)C(OCc2ccc3ccccc3c2)C1O (stereo not shown) [compound 247]												A9: inhibition of radioligand binding ([1]; [125I]-PYY, FlashPlate): − (“−” indicates less than 50% inhibition at 10 μM); A4: inhibition of radioligand binding ([2]; [125I]-NDP-αMSH, FlashPlate): + (“+” indicates greater than 50% inhibition at 10 μM); A10: inhibition of radioligand binding ([3]; [125I]-Nociceptin, FlashPlate): − (“−” indicates less than 50% inhibition at 10 μM); A8: inhibition of radioligand binding ([4]; [125I]-Substance P, filtration): + (“+” indicates greater than 50% inhibition at 10 μM); A6: inhibition of radioligand binding ([5]; [125I]-S36057, FlashPlate): − (“−” indicates less than 50% inhibition at 10 μM); A5: inhibition of radioligand binding ([6]; [125I]-NDP-αMSH, FlashPlate): + (“+” indicates greater than 50% inhibition at 10 μM); A11: inhibition of radioligand binding ([7]; [125I]-Urotensin II, FlashPlate): − (“−” indicates less than 50% inhibition at 10 μM); A3: inhibition of radioligand binding ([8]; [125I]-NDP-αMSH, FlashPlate): + (“+” indicates greater than 50% inhibition at 10 μM); A2: inhibition of radioligand binding ([9]; [3H]-Diprenorphine, filtration): − (“−” indicates less than 50% inhibition at 10 μM); A7: inhibition of radioligand binding ([10]; [3H]-Naloxone, FlashPlate): − (“−” indicates less than 50% inhibition at 10 μM); A1: inhibition of radioligand binding ([11]; [3H]-Bremazocine, FlashPlate): − (“−” indicates less than 50% inhibition at 10 μM)
NCCCC(=O)NC1C(OCc2ccccc2)OC(COCc2ccccc2)C(O)C1OCc1ccc(Cl)cc1 (stereo not shown) [compound 373]												A9: inhibition of radioligand binding, human neuropeptide Y (NPY-Y1) ([1]; [125I]-PYY): − (“−” indicates less than 50% inhibition at 10 μM); A4: inhibition of radioligand binding, human melanocortin (MC4) ([2]; [125I]-NDP-αMSH): + (“+” indicates greater than 50% inhibition at 10 μM); A10: inhibition of radioligand binding, human opioid (ORL1) ([3]; [125I]-Nociceptin): − (“−” indicates less than 50% inhibition at 10 μM); A8: inhibition of radioligand binding, human neurokinin (NK1) ([4]; [125I]-Substance P): + (“+” indicates greater than 50% inhibition at 10 μM); A6: inhibition of radioligand binding, human melanin-concentrating hormone (MCH1) ([5]; [125I]-S36057): − (“−” indicates less than 50% inhibition at 10 μM); A5: inhibition of radioligand binding, human melanocortin (MC5) ([6]; [125I]-NDP-αMSH): + (“+” indicates greater than 50% inhibition at 10 μM); A11: inhibition of radioligand binding, mouse urotensin (mUR2) ([7]; [125I]-Urotensin II): − (“−” indicates less than 50% inhibition at 10 μM); A3: inhibition of radioligand binding, human melanocortin (MC3) ([8]; [125I]-NDP-αMSH): − (“−” indicates less than 50% inhibition at 10 μM); A2: inhibition of radioligand binding, human κ-opioid (KOP) ([9]; [3H]-Diprenorphine): − (“−” indicates less than 50% inhibition at 10 μM); A7: inhibition of radioligand binding, human μ-opioid (MOP) ([10]; [3H]-Naloxone): − (“−” indicates less than 50% inhibition at 10 μM); A1: inhibition of radioligand binding, human δ-opioid (DOP) ([11]; [3H]-Bremazocine): − (“−” indicates less than 50% inhibition at 10 μM)
COC[C@H]1OC(OCc2ccc(-c3ccccc3)cc2)[C@H](NC(=O)CNC(=N)N)[C@@H](OCc2ccc(Cl)cc2)[C@@H]1O (stereo partly shown) [compound 10]	− (“−” indicates less than 50% inhibition at 10 μM)	− (“−” indicates less than 50% inhibition at 10 μM)	− (“−” indicates less than 50% inhibition at 10 μM)	+ (“+” indicates greater than 50% inhibition at 10 μM)	+ (“+” indicates greater than 50% inhibition at 10 μM)	+ (“+” indicates greater than 50% inhibition at 10 μM)	− (“−” indicates less than 50% inhibition at 10 μM)	− (“−” indicates less than 50% inhibition at 10 μM)	− (“−” indicates less than 50% inhibition at 10 μM)	− (“−” indicates less than 50% inhibition at 10 μM)	− (“−” indicates less than 50% inhibition at 10 μM)	
COC[C@H]1OC(OCc2ccc3ccccc3c2)[C@H](NC(=O)CNC(=N)N)[C@@H](OCc2ccc3ccccc3c2)[C@@H]1O (stereo partly shown) [compound 17]	− (“−” indicates less than 50% inhibition at 10 μM)	+ (“+” indicates greater than 50% inhibition at 10 μM)	− (“−” indicates less than 50% inhibition at 10 μM)	+ (“+” indicates greater than 50% inhibition at 10 μM)	+ (“+” indicates greater than 50% inhibition at 10 μM)	+ (“+” indicates greater than 50% inhibition at 10 μM)	− (“−” indicates less than 50% inhibition at 10 μM)	− (“−” indicates less than 50% inhibition at 10 μM)	− (“−” indicates less than 50% inhibition at 10 μM)	+ (“+” indicates greater than 50% inhibition at 10 μM)	− (“−” indicates less than 50% inhibition at 10 μM)	
COC[C@H]1OC(OCc2ccccc2)[C@H](NC(=O)CCNC(=N)N)[C@@H](OCc2ccc(-c3ccccc3)cc2)[C@@H]1O (stereo partly shown) [compound 24]	− (“−” indicates less than 50% inhibition at 10 μM)	− (“−” indicates less than 50% inhibition at 10 μM)	− (“−” indicates less than 50% inhibition at 10 μM)	+ (“+” indicates greater than 50% inhibition at 10 μM)	+ (“+” indicates greater than 50% inhibition at 10 μM)	+ (“+” indicates greater than 50% inhibition at 10 μM)	− (“−” indicates less than 50% inhibition at 10 μM)	− (“−” indicates less than 50% inhibition at 10 μM)	− (“−” indicates less than 50% inhibition at 10 μM)	− (“−” indicates less than 50% inhibition at 10 μM)	− (“−” indicates less than 50% inhibition at 10 μM)	
